Earlier results, collected in US9925191B2, “Fumarate compounds, pharmaceutical compositions thereof, and methods of use” (priority 2015, dated 2018).

COC(=O)/C=C/C(=O)OC [DMF, dimethylfumarate]
aqueous solubility: poor aqueous solubility
